The values that follow come from US12123019B2, “Uses of kinase inhibitors for inducing and maintaining pluripotency” (Whitehead Institute for Biomedical Research, priority 2014, dated 2024).

SMILES strings stand for the structures.

The subject of the assay is OCT4-ΔPE-GFP-negative (primed) human ESCs. As to the kind of experiment: Removal of latent OCT4-ΔPE-GFP-negative cells during 2i/L/DOX induction. It is filed as cell-based. To be noted: additional treatment with 0.1 μM PD173074 and 5 μM SB431542 upon addition of 2i/L/DOX. From the text:
VSVG coated lentiviruses were generated in HEK-293 cells as described previously (Brambrink et al., 2008; Soldner et al., 2009; Soldner et al., 2011). Briefly, culture medium was changed 12 hr post-transfection and virus-containing supernatant was collected 48 to 72 hr post transfection. Viral supernatant was filtered through a […] filter. Virus-containing supernatants of the 2 reprogramming viruses (FUW-tetO-lox-hKLF2 and FUW-tetO-lox-hNANOG) were pooled and supplemented with the FUW-lox-M2rtTA virus and an equal volume of fresh culture medium. 1×10^6 human ESCs were seeded 24 hr before transduction in T75 flasks on matrigel in mTesr1 medium (STEMCELL Technologies). Two consecutive infections in the presence of […] of polybrene were performed over a period of 24 hr. Culture medium was changed 12 hr after the last infection. Five days after transduction, human ESCs were passaged using 0.25% trypsin/EDTA solution (Invitrogen) and re-plated on mitomycin C inactivated mouse embryonic fibroblast (MEF) feeder layers in conventional human ESC medium. To induce conversion to the naïve state, human ESCs were trypsinized and seeded at a density of 1×10^5 cells per 6 individual well on a MEF feeder layer in presence of ROCK inhibitor Y-27632. […]

As to `NC(=O)c1ccc(-c2nc(-c3ccc4c(c3)OCO4)c(-c3ccccn3)[nH]2)cc1` [SB431542], the “latent OCT4-ΔPE-GFP-negative cells” value is “removed almost entirely”.
